{
  "source": "patent US6843979B2",
  "about": "“4-haloethenylphenyl tropane:serotonin transporter imaging agents” (Emory University, priority 1999, dated 2005)",
  "key": {"SERT [1]": {"system": "SERT", "details": "cited from earlier work"}, "[2]": {"molecular_target": "dopamine transporter (DAT) (Rattus norvegicus, UniProt P23977)", "sequence (P23977 whole entry)": "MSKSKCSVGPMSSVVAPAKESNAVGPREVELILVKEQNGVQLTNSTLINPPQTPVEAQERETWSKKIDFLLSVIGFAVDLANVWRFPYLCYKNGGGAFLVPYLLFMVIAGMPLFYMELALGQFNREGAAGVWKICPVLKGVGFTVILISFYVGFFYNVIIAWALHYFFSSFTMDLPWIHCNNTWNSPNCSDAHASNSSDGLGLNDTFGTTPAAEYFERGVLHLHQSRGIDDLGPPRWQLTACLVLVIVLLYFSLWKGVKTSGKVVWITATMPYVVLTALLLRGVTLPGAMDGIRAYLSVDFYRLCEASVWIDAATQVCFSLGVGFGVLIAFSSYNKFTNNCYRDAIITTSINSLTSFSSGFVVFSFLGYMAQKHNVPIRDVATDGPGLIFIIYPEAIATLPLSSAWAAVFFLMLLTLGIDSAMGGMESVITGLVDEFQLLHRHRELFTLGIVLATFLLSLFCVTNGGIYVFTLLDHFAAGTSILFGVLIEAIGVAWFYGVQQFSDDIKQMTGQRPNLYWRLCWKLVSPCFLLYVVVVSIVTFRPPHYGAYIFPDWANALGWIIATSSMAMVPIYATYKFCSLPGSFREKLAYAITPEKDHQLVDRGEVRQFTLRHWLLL", "details": "vs [3H]WIN 35428; cited from earlier work"}, "SERT sites": {"system": "SERT sites", "assay": "In vitro autoradiography, coronal brain slices", "type": "binding, pig tailed macaque", "procedure": "[^18F]FEINT and [^18F]FEBrNT were incubated with pig tailed macaque coronal brain slices and the slices exposed to film for 30 min. […] Incubation of the brain slices with [^18F]FEINT (FIG. 1) and [^18F]FEBrNT and 10 μM citalopram yielded maximal inhibition (90%) of binding.\nThe radiosynthesis for [^18F] 10a, [^18F]12a, and [^18F]12b employed the tosylates 9a and 13a,b as the substrates respectively. The tosylate 9a was treated with NCA K[^18F]/K222 for 10 min in 1 mL of CH3CN at 85° C. followed by TFA/CH2Cl2 at 27° C. […] [^18F]FEBrNT and [^18F]FEClNT were synthesized from the tosylates 13a and 13b in a similar manner. [^18F]FEINT and [18F]FEBrNT were incubated with pig tailed macaque coronal brain slices."}, "SERT [3]": {"molecular_target": "T1, SERT (Rattus norvegicus, UniProt P31652)", "T1 construct": "from tissue; host or cells: brain and other tissues of living male Sprague Dawley rats", "T1 sequence (P31652 whole entry)": "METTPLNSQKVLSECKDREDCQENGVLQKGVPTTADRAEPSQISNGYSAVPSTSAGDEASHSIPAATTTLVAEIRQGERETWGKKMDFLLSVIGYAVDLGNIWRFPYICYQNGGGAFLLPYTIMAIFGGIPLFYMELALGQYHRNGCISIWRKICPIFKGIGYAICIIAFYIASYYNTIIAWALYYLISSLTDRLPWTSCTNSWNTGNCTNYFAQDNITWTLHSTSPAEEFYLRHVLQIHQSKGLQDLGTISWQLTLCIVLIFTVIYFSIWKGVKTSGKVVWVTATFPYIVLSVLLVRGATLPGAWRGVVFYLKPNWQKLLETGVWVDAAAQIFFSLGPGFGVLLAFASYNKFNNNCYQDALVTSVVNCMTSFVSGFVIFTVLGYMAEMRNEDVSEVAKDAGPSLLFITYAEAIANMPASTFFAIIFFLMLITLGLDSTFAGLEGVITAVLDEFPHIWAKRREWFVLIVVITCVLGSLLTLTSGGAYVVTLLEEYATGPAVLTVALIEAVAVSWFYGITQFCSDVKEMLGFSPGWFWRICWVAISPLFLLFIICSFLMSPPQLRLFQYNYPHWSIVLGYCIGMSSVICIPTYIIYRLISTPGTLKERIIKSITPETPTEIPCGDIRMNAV", "assay": "Ex vivo autoradiographic study in rats", "set-up": "species or system Sprague Dawley rat", "procedure": "An initial ex vivo autoradiographic study was performed with either [^18F]FEINT or [^18F]FEBrNT in rats to measure brain penetration and regional distribution. A male Sprague Dawley rat was injected with one mCi of no-carrier added either […]."}, "SERT [4]": {"molecular_target": "T1, SERT", "assay": "Tissue uptake of [18F]FEINT in rats", "type": "in vivo, Sprague Dawley rat", "details": "for Clearance from the hypothalamus: rat", "procedure": "The in vivo regional brain tissue distribution of [^18F]FEBrNT (Table 2) and [^18F]FEINT Tables 3 and 4) were compared with a preliminary study in rats. […] The hypothalamus to cerebellum ratios for [^18F]FEBrNT were 5.7 at 60 min post injection in comparison to 4.8 for [^18F]FEINT. […] The regional distribution of [^18F]FEBrNT and [^18F]FEINT were next studied in the brain of rhesus monkeys."}, "SERT [5]": {"molecular_target": "T2, SERT (Macaca mulatta, UniProt Q9MYX0)", "T2 construct": "from tissue; host or cells: brain of a living rhesus monkey", "T2 sequence (Q9MYX0 whole entry)": "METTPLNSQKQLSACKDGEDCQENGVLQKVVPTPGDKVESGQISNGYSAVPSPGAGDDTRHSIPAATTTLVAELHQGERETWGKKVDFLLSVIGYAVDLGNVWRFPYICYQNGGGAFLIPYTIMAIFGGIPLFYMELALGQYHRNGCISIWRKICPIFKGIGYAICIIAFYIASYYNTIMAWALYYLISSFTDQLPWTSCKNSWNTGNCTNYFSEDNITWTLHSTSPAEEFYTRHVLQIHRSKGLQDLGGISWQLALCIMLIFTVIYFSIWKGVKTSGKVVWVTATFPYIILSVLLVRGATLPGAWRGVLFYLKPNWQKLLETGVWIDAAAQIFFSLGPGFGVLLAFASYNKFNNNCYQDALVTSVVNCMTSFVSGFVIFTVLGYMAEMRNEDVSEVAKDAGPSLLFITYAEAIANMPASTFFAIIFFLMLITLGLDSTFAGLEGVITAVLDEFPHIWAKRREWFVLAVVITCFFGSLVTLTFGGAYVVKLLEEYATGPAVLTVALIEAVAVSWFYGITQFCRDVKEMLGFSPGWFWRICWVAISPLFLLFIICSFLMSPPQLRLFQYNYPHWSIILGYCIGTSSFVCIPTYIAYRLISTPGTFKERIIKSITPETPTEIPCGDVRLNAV", "assay": "PET imaging and fluvoxamine displacement in rhesus monkey", "type": "in vivo", "details": "anesthetized rhesus monkey; thalamus, hypothalamus, pons / midbrain, brain stem", "procedure": "FIG. 3 is a graph showing time activity curves of [^18F]FEBrNT in a rhesus monkey in the thalamus (∘), hypothalamus (Δ), pons (⋄) and cerebellum (x) at 0-120 min i.v. post injection."}, "[6]": {"details": "Table 3, rat, 60 min after i.v., Fluvoxamine"}, "[7]": {"details": "Table 3, rat, 60 min after i.v., No block"}, "[8]": {"details": "Table 4, rat, 30 min after i.v."}, "[9]": {"details": "Table 4, rat, 60 min after i.v."}, "[10]": {"details": "Table 4, rat, 120 min after i.v."}},
  "note": "Values joined by “and” are separate entries in the source; they are usually repeats but may differ in a detail not shown here. Equal values may be shown once.",
  "data": [
    {"smiles": "CC=Cc1ccc(C2CC3CCC(N3)C2C(=O)OC)cc1", "note": "(stereo not drawn) [Nor-β-CCPPT, 2β-carbomethoxy-3β-(4′cis-propenylphenyl)notropane]", "values": [
      {"measurement": "Selectivity for the SERT over the DAT", "setting": "SERT [1]", "result": 28, "unit": "times"},
      {"measurement": "IC50", "setting": "SERT [1]; vs [3H]paroxetine", "result": 1.15, "unit": "nM"},
      {"measurement": "IC50", "setting": "[2]", "result": 32, "unit": "nM"}
    ]},
    {"smiles": "COC(=O)C1C2CCC(CC1c1ccc(CC[18F])c(I)c1)N2", "note": "(centres unmarked) [[^18F]FEINT]", "values": [
      {"measurement": "Localization of tracer binding in brain slices", "setting": "SERT sites; slices exposed to film 30 min", "result": "localized to the thalamus, hypothalamus, caudate, amygloid complex, putamen and temporal cortex"},
      {"measurement": "Inhibition of tracer binding to brain slices", "setting": "SERT sites; with 10 μM citalopram", "result": 90, "unit": "%"},
      {"measurement": "Localization of tracer binding, ex vivo autoradiography", "setting": "SERT [3]; 1 mCi tracer", "result": "localized to the thalamus, hypothalamus, caudate, putamen and amygloid complex"},
      {"measurement": "Effect of fluvoxamine block on tracer binding", "setting": "SERT [3]; fluvoxamine 5 mg/kg 20 min prior to tracer", "result": "maximal inhibition of binding"},
      {"measurement": "Hypothal/(CB) ratio", "setting": "SERT [4]; [6]", "result": 3.8},
      {"measurement": "Striatum/(CB) ratio", "setting": "SERT [4]; [6]", "result": 2.0},
      {"measurement": "Tissue uptake, Blood", "setting": "SERT [4]; [6]", "result": "0.07 (0.06-0.08) % dose/g"},
      {"measurement": "Tissue uptake, Cerebellum", "setting": "SERT [4]; [6]", "result": "0.1 (0.09-0.12) % dose/g"},
      {"measurement": "Tissue uptake, Cortex", "setting": "SERT [4]; [6]", "result": "0.15 (0.15-0.73) % dose/g"},
      {"measurement": "Tissue uptake, Hypothalamus", "setting": "SERT [4]; [6]", "result": "0.38 (0.28-0.45) % dose/g"},
      {"measurement": "Tissue uptake, Olf. T.", "setting": "SERT [4]; [6]", "result": "0.04 (0.19-0.55) % dose/g"},
      {"measurement": "Tissue uptake, Prefrontal Cortex", "setting": "SERT [4]; [6]", "result": "0.18 (0.06-0.41) % dose/g"},
      {"measurement": "Tissue uptake, Striatum", "setting": "SERT [4]; [6]", "result": "0.2 (0.16-1.40) % dose/g"},
      {"measurement": "Hypothal/(CB) ratio", "setting": "SERT [4]; [7]", "result": "4.8 and 4.6"},
      {"measurement": "Striatum/(CB) ratio", "setting": "SERT [4]; [7]", "result": 2.3},
      {"measurement": "Tissue uptake, Blood", "setting": "SERT [4]; [7]", "result": "0.09 (0.09-0.99) % dose/g"},
      {"measurement": "Tissue uptake, Cerebellum", "setting": "SERT [4]; [7]", "result": "0.11 (0.11-0.12) % dose/g"},
      {"measurement": "Tissue uptake, Cortex", "setting": "SERT [4]; [7]", "result": "0.18 (0.15-0.19) % dose/g"},
      {"measurement": "Tissue uptake, Hypothalamus", "setting": "SERT [4]; [7]", "result": "0.5 (0.32-0.77) % dose/g"},
      {"measurement": "Tissue uptake, Olf. T.", "setting": "SERT [4]; [7]", "result": "1.46 (1.24-1.65) % dose/g"},
      {"measurement": "Tissue uptake, Prefrontal Cortex", "setting": "SERT [4]; [7]", "result": "0.25 (0.21-0.29) % dose/g"},
      {"measurement": "Tissue uptake, Striatum", "setting": "SERT [4]; [7]", "result": "0.25 (0.21-0.29) % dose/g"},
      {"measurement": "Hypothal/(CB) ratio", "setting": "SERT [4]; Table 4, rat, 5 min after i.v.", "result": 1.67},
      {"measurement": "Striatum/(CB) ratio", "setting": "SERT [4]; Table 4, rat, 5 min after i.v.", "result": 1.45},
      {"measurement": "Tissue uptake, Blood", "setting": "SERT [4]; Table 4, rat, 5 min after i.v.", "result": "0.19 (0.15-0.23)"},
      {"measurement": "Tissue uptake, Bone", "setting": "SERT [4]; Table 4, rat, 5 min after i.v.", "result": "0.27 (0.23-0.31)"},
      {"measurement": "Tissue uptake, Brain", "setting": "SERT [4]; Table 4, rat, 5 min after i.v.", "result": "0.65 (0.56-0.75)"},
      {"measurement": "Tissue uptake, Cerebellum", "setting": "SERT [4]; Table 4, rat, 5 min after i.v.", "result": "0.58 (0.51-0.65)"},
      {"measurement": "Tissue uptake, Cortex", "setting": "SERT [4]; Table 4, rat, 5 min after i.v.", "result": "0.76 (0.64-0.96)"},
      {"measurement": "Tissue uptake, Hypothalamus", "setting": "SERT [4]; Table 4, rat, 5 min after i.v.", "result": "0.97 (0.58-1.59)"},
      {"measurement": "Tissue uptake, Pre-frontal Cortex", "setting": "SERT [4]; Table 4, rat, 5 min after i.v.", "result": "0.75 (0.54-0.87)"},
      {"measurement": "Tissue uptake, Striatum", "setting": "SERT [4]; Table 4, rat, 5 min after i.v.", "result": "0.84 (0.59-1.20)"},
      {"measurement": "Hypothal/(CB) ratio", "setting": "SERT [4]; [8]", "result": 2.87},
      {"measurement": "Striatum/(CB) ratio", "setting": "SERT [4]; [8]", "result": 1.70},
      {"measurement": "Tissue uptake, Blood", "setting": "SERT [4]; [8]", "result": "0.14 (0.13-0.15)"},
      {"measurement": "Tissue uptake, Bone", "setting": "SERT [4]; [8]", "result": "0.70 (0.36-0.92)"},
      {"measurement": "Tissue uptake, Brain", "setting": "SERT [4]; [8]", "result": "0.35 (0.32-0.40)"},
      {"measurement": "Tissue uptake, Cerebellum", "setting": "SERT [4]; [8]", "result": "0.23 (0.22-0.23)"},
      {"measurement": "Tissue uptake, Cortex", "setting": "SERT [4]; [8]", "result": "0.36 (0.34-0.40)"},
      {"measurement": "Tissue uptake, Hypothalamus", "setting": "SERT [4]; [8]", "result": "0.66 (0.51-0.89)"},
      {"measurement": "Tissue uptake, Pre-frontal Cortex", "setting": "SERT [4]; [8]", "result": "0.37 (0.33-0.42)"},
      {"measurement": "Tissue uptake, Striatum", "setting": "SERT [4]; [8]", "result": "0.39 (0.29-0.55)"},
      {"measurement": "Hypothal/(CB) ratio", "setting": "SERT [4]; [9]", "result": 2.67},
      {"measurement": "Striatum/(CB) ratio", "setting": "SERT [4]; [9]", "result": 2.44},
      {"measurement": "Tissue uptake, Blood", "setting": "SERT [4]; [9]", "result": "0.10 (0.08-0.11)"},
      {"measurement": "Tissue uptake, Bone", "setting": "SERT [4]; [9]", "result": "0.95 (0.53-1.17)"},
      {"measurement": "Tissue uptake, Brain", "setting": "SERT [4]; [9]", "result": "0.14 (0.12-0.18)"},
      {"measurement": "Tissue uptake, Cerebellum", "setting": "SERT [4]; [9]", "result": "0.09 (0.07-0.11)"},
      {"measurement": "Tissue uptake, Cortex", "setting": "SERT [4]; [9]", "result": "0.13 (0.10-0.17)"},
      {"measurement": "Tissue uptake, Hypothalamus", "setting": "SERT [4]; [9]", "result": "0.24 (0.18-0.30)"},
      {"measurement": "Tissue uptake, Pre-frontal Cortex", "setting": "SERT [4]; [9]", "result": "0.14 (0.11-0.19)"},
      {"measurement": "Tissue uptake, Striatum", "setting": "SERT [4]; [9]", "result": "0.22 (0.17-0.31)"},
      {"measurement": "Hypothal/(CB) ratio", "setting": "SERT [4]; [10]", "result": "2.8 and 2.83"},
      {"measurement": "Striatum/(CB) ratio", "setting": "SERT [4]; [10]", "result": "1.7 and 1.67"},
      {"measurement": "Tissue uptake, Blood", "setting": "SERT [4]; [10]", "result": "0.63 (0.58-0.68)"},
      {"measurement": "Tissue uptake, Bone", "setting": "SERT [4]; [10]", "result": "1.26 (0.94-1.67)"},
      {"measurement": "Tissue uptake, Brain", "setting": "SERT [4]; [10]", "result": "0.89 (0.08-0.11)"},
      {"measurement": "Tissue uptake, Cerebellum", "setting": "SERT [4]; [10]", "result": "0.06 (0.05-0.08)"},
      {"measurement": "Tissue uptake, Cortex", "setting": "SERT [4]; [10]", "result": "0.09 (0.08-0.11)"},
      {"measurement": "Tissue uptake, Hypothalamus", "setting": "SERT [4]; [10]", "result": "0.17 (0.26-0.17)"},
      {"measurement": "Tissue uptake, Pre-frontal Cortex", "setting": "SERT [4]; [10]", "result": "0.10 (0.09-0.11)"},
      {"measurement": "Tissue uptake, Striatum", "setting": "SERT [4]; [10]", "result": "0.10 (0.09-0.13)"},
      {"measurement": "Clearance from the hypothalamus", "setting": "SERT [4]; at 60 min compared to 5 min post injection", "result": 75, "unit": "%"},
      {"measurement": "Clearance from the hypothalamus", "setting": "SERT [4]; at 120 min compared to 5 min post injection", "result": 85, "unit": "%"},
      {"measurement": "Regional brain uptake by PET", "setting": "SERT [5]", "result": "no visible uptake"}
    ]}
  ]
}
